From PubChem BioAssay (NCI)
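Following 48 hours of exposure in 96-well plates, responses at five concentrations were used to interpolate endpoints linearly. TGI is the concentration that stops growth completely.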

Assays:
Assay in all cases: NCI-60 cell line screen, 48 h
NCI/ADR-RES ovarian = tested on: NCI/ADR-RES ovarian
HL-60(TB) leukemia = tested on: HL-60(TB) leukemia
RXF 393 renal = tested on: RXF 393 renal
MOLT-4 leukemia = tested on: MOLT-4 leukemia
A498 renal = tested on: A498 renal
UO-31 renal = tested on: UO-31 renal
COLO 205 colon = tested on: COLO 205 colon
SNB-19 CNS = tested on: SNB-19 CNS
OVCAR-4 ovarian = tested on: OVCAR-4 ovarian
PC-3 prostate = tested on: PC-3 prostate
BT-549 breast = tested on: BT-549 breast
T-47D breast = tested on: T-47D breast
SK-MEL-2 melanoma = tested on: SK-MEL-2 melanoma
UACC-257 melanoma = tested on: UACC-257 melanoma
HT29 colon = tested on: HT29 colon
CCRF-CEM leukemia = tested on: CCRF-CEM leukemia
MDA-MB-435 = tested on: MDA-MB-435
TK-10 renal = tested on: TK-10 renal
SN12C renal = tested on: SN12C renal
NCI-H23 lung = tested on: NCI-H23 lung
U251 CNS = tested on: U251 CNS
MDA-MB-231 breast = tested on: MDA-MB-231 breast
HS 578T breast = tested on: HS 578T breast
RPMI-8226 leukemia = tested on: RPMI-8226 leukemia
SW-620 colon = tested on: SW-620 colon
MDA-N = tested on: MDA-N
SF-539 CNS = tested on: SF-539 CNS
EKVX NSCLC = tested on: EKVX NSCLC
SNB-75 CNS = tested on: SNB-75 CNS
MCF7 breast = tested on: MCF7 breast
MALME-3M melanoma = tested on: MALME-3M melanoma
786-0 renal = tested on: 786-0 renal
K-562 leukemia = tested on: K-562 leukemia
NCI-H522 lung = tested on: NCI-H522 lung
NCI-H226 lung = tested on: NCI-H226 lung
SR leukemia = tested on: SR leukemia
HCT-116 colon = tested on: HCT-116 colon
A549 NSCLC = tested on: A549 NSCLC
SF-268 CNS = tested on: SF-268 CNS
SK-MEL-28 melanoma = tested on: SK-MEL-28 melanoma
UACC-62 melanoma = tested on: UACC-62 melanoma
KM12 colon = tested on: KM12 colon
LOX IMVI melanoma = tested on: LOX IMVI melanoma
HCC-2998 colon = tested on: HCC-2998 colon
NCI-H460 lung = tested on: NCI-H460 lung
OVCAR-8 ovarian = tested on: OVCAR-8 ovarian
SK-OV-3 ovarian = tested on: SK-OV-3 ovarian
DU-145 prostate = tested on: DU-145 prostate
CAKI-1 renal = tested on: CAKI-1 renal
SK-MEL-5 melanoma = tested on: SK-MEL-5 melanoma
HCT-15 colon = tested on: HCT-15 colon
HOP-62 NSCLC = tested on: HOP-62 NSCLC
IGROV1 ovarian = tested on: IGROV1 ovarian
M14 melanoma = tested on: M14 melanoma
OVCAR-5 ovarian = tested on: OVCAR-5 ovarian
OVCAR-3 ovarian = tested on: OVCAR-3 ovarian
ACHN renal = tested on: ACHN renal
HOP-92 NSCLC = tested on: HOP-92 NSCLC
SF-295 CNS = tested on: SF-295 CNS

Measured: TGI

CSc1c(C#N)c(=O)n(N)c2n[nH]c(C)c12
> 100 µM: NCI/ADR-RES ovarian | HL-60(TB) leukemia | RXF 393 renal | MOLT-4 leukemia | A498 renal | UO-31 renal | COLO 205 colon | SNB-19 CNS | OVCAR-4 ovarian | PC-3 prostate | BT-549 breast | T-47D breast | SK-MEL-2 melanoma | UACC-257 melanoma | HT29 colon | CCRF-CEM leukemia | MDA-MB-435 | TK-10 renal | SN12C renal | NCI-H23 lung | U251 CNS | MDA-MB-231 breast | HS 578T breast | RPMI-8226 leukemia | SW-620 colon | MDA-N | SF-539 CNS | EKVX NSCLC | SNB-75 CNS | MCF7 breast | MALME-3M melanoma | 786-0 renal | K-562 leukemia | NCI-H522 lung | NCI-H226 lung | SR leukemia | HCT-116 colon | A549 NSCLC | SF-268 CNS | SK-MEL-28 melanoma | UACC-62 melanoma | KM12 colon | LOX IMVI melanoma | HCC-2998 colon | NCI-H460 lung | OVCAR-8 ovarian | SK-OV-3 ovarian | DU-145 prostate | CAKI-1 renal | SK-MEL-5 melanoma | HCT-15 colon

Cc1csc(CP(=O)(OC(C)C)OC(C)C)n1
> 100 µM: NCI/ADR-RES ovarian | HL-60(TB) leukemia | RXF 393 renal | MOLT-4 leukemia | HOP-62 NSCLC | IGROV1 ovarian | A498 renal | UO-31 renal | COLO 205 colon | SNB-19 CNS | OVCAR-4 ovarian | PC-3 prostate | BT-549 breast | T-47D breast | SK-MEL-2 melanoma | UACC-257 melanoma | HT29 colon | MDA-MB-435 | TK-10 renal | M14 melanoma | SN12C renal | NCI-H23 lung | U251 CNS | OVCAR-5 ovarian | MDA-MB-231 breast | HS 578T breast | RPMI-8226 leukemia | SW-620 colon | MDA-N | SF-539 CNS | EKVX NSCLC | SNB-75 CNS | OVCAR-3 ovarian | MCF7 breast | MALME-3M melanoma | 786-0 renal | K-562 leukemia | ACHN renal | NCI-H522 lung | NCI-H226 lung | SR leukemia | HCT-116 colon | A549 NSCLC | SF-268 CNS | SK-MEL-28 melanoma | HOP-92 NSCLC | LOX IMVI melanoma | HCC-2998 colon | NCI-H460 lung | OVCAR-8 ovarian | SK-OV-3 ovarian | SF-295 CNS | DU-145 prostate | CAKI-1 renal | SK-MEL-5 melanoma | HCT-15 colon
